Source: ChEMBL document CHEMBL1201862, “PubChem BioAssay data set” (2004)
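Method: 48-hour compound exposure of cells in 96-well plates, five concentrations, linear interpolation of endpoints. Abbreviation: GI50, concentration required for 50% inhibition of growth.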 Activity calls are given as the source filed them. Cut-off read from the data, not from the text of the source: active = GI50 up to about 1.1 µM and inactive = higher.

Columns and labels:
Test in all cases: NCI anticancer screen, dose series, 48 h
EKVX = test system: EKVX
SK-MEL-2 = test system: SK-MEL-2
HCT-116 = test system: HCT-116
SK-MEL-28 = test system: SK-MEL-28
NCI-H460 = test system: NCI-H460
CAKI-1 = test system: CAKI-1
ACHN = test system: ACHN
SF-295 = test system: SF-295
PC-3 = test system: PC-3
UACC-257 = test system: UACC-257
MCF7 = test system: MCF7
NCI-H522 = test system: NCI-H522
HCT-15 = test system: HCT-15
Hs-578T = test system: Hs-578T
SF-539 = test system: SF-539
MDA-MB-231 = test system: MDA-MB-231
HOP-92 = test system: HOP-92
SNB-75 = test system: SNB-75
NCI/ADR-RES = test system: NCI/ADR-RES
MOLT-4 = test system: MOLT-4

Row | Structure (SMILES) | GI50 (EKVX) | GI50 (SK-MEL-2) | GI50 (HCT-116) | GI50 (SK-MEL-28) | GI50 (NCI-H460) | GI50 (CAKI-1) | GI50 (ACHN) | GI50 (SF-295) | GI50 (PC-3) | GI50 (UACC-257) | GI50 (MCF7) | GI50 (NCI-H522) | GI50 (HCT-15) | GI50 (Hs-578T) | GI50 (SF-539) | GI50 (MDA-MB-231) | GI50 (HOP-92) | GI50 (SNB-75) | GI50 (NCI/ADR-RES) | GI50 (MOLT-4)
1 | CC(=O)O[C@H]1/C(=C/c2ccncc2)C[C@H]2[C@@H]3CC=C4C[C@@H](N5CCCC5)CC[C@]4(C)[C@H]3CC[C@]12C | 13.9 µM (inactive) | 15.5 µM (inactive) | 3.41 µM (inactive) | 12.7 µM (inactive) | 10.8 µM (inactive) | 14 µM (inactive) | 14.1 µM (inactive) | 14.5 µM (inactive) | 11.7 µM (inactive) | 2.34 µM (inactive) | 12.1 µM (inactive) | 15.2 µM (inactive) | 10.1 µM | 16.6 µM (inactive) | 18.6 µM (inactive) | 19.1 µM (inactive) | 4.24 µM (inactive) | 14.7 µM (inactive) | 8.95 µM (inactive) | 11.5 µM (inactive)
2 | N=C(N)CCNC(=O)C1CCC(N)=N1 (stereo not given) | 9.12 µM (inactive) | 27.2 µM (inactive) | 13.1 µM (inactive) | 19.2 µM (inactive) | 7.55 µM (inactive) | 10.6 µM (inactive) | 13.8 µM (inactive) | 18.9 µM (inactive) | 6 µM (inactive) | 13.7 µM (inactive) | 16.2 µM (inactive) | 23 µM (inactive) | 37.9 µM | 8.36 µM (inactive) | 11.6 µM (inactive) | 14.7 µM (inactive) | 11.6 µM (inactive) | 12.2 µM (inactive) | 26.2 µM (inactive) | 12.2 µM (inactive)
3 | COc1ccc2c(c1)-c1nc(=O)n(CCCN(C)C)c3ccc([N+](=O)[O-])c(c13)N2 | 0.711 µM (active) | 12.2 µM (inactive) | 0.293 µM (active) | 1.19 µM (inactive) | 0.435 µM (active) | 0.434 µM (active) | 0.485 µM (active) | 0.791 µM (active) | 0.792 µM (active) | 1.04 µM (active) | 0.448 µM (active) | 0.368 µM (active) | 0.897 µM | 1.56 µM (inactive) | 0.421 µM (active) | 0.561 µM (active) | 1.57 µM (inactive) | 1.28 µM (inactive) | 1.88 µM (inactive) | 0.215 µM (active)
4 | C[C@H]1[C@H](C)CC[C@]2(C(=O)OC3OC(CO)C(O)C(O)C3O)CC[C@]3(C)C(=CC[C@@H]4[C@@]5(C)C[C@@H](O)[C@@H]6OC(=O)c7cc(O)c(O)c(O)c7-c7c(cc(O)c(O)c7O)C(=O)OC[C@@]6(CO)[C@@H]5CC[C@]43C)[C@H]12 (stereo not given in full) | > 100 µM (inactive) | > 100 µM (inactive) | 46.7 µM (inactive) | > 100 µM (inactive) | 98.6 µM (inactive) | 47.8 µM (inactive) | > 100 µM (inactive) | > 100 µM (inactive) | > 88.3 µM (inactive) | > 100 µM (inactive) | 18.6 µM (inactive) | > 59.3 µM (inactive) | 76.7 µM | > 100 µM (inactive) | > 100 µM (inactive) | 19.5 µM (inactive) | > 92.5 µM (inactive) | > 100 µM (inactive) | > 100 µM (inactive) | 39.5 µM (inactive)
5 | O=C(CC(O)(C(F)(F)F)C(F)(F)F)c1cc(CC(=O)C(O)(C(F)(F)F)C(F)(F)F)cc(CC(=O)C(O)(C(F)(F)F)C(F)(F)F)c1 | 2.24 µM (inactive) | 1.75 µM (inactive) | 0.76 µM (active) | 1.64 µM (inactive) | 0.454 µM (active) | 1.75 µM (inactive) | 0.802 µM (active) | 1.05 µM (active) | 0.78 µM (active) | 1.95 µM (inactive) | 1.86 µM (inactive) | 1.14 µM (inactive) | 0.971 µM | 2.05 µM (inactive) | 2.05 µM (inactive) | 1.64 µM (inactive) | 0.984 µM (active) | 1.91 µM (inactive) | 1.85 µM (inactive) | 4.47 µM (inactive)
6 | COC(=O)/C=C1/OC(c2ccc(Br)cc2)=C(Br)C1=O | 13.2 µM (inactive) | 10.6 µM (inactive) | 3 µM (inactive) | 12 µM (inactive) | 14.5 µM (inactive) | 2.33 µM (inactive) | 7.23 µM (inactive) | 14.1 µM (inactive) | 6.93 µM (inactive) | 13.3 µM (inactive) | 10.5 µM (inactive) | 3.94 µM (inactive) | 5.14 µM | 8.38 µM (inactive) | 5.94 µM (inactive) | 2.43 µM (inactive) | 7.48 µM (inactive) | 7.43 µM (inactive) | 9.4 µM (inactive) | 2.42 µM (inactive)
7 | CN1CCc2c(sc3ncn(Nc4ccc(Cl)cc4)c(=N)c23)C1 | > 100 µM (inactive) | > 100 µM (inactive) | > 100 µM (inactive) | > 100 µM (inactive) | > 100 µM (inactive) | > 100 µM (inactive) | > 100 µM (inactive) | > 100 µM (inactive) | > 100 µM (inactive) | > 100 µM (inactive) | > 100 µM (inactive) | > 100 µM (inactive) | > 100 µM | > 100 µM (inactive) | > 100 µM (inactive) | > 100 µM (inactive) | > 100 µM (inactive) | > 100 µM (inactive) | > 100 µM (inactive) | > 100 µM (inactive)
